Some test systems named below: MCF7; 786-0; A549; SW-620; SNB-75; OVCAR-8; MDA-MB-435; SK-MEL-28; COLO 205; NCI-H522; CCRF-CEM; HCT-15; SN12C; ACHN; T47D; NCI/ADR-RES; DU-145; BT-549; HOP-92; Malme-3M.
Common to all, as to experiment: DTP human tumour cell line panel, 48 h

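Cultured in 96-well plates, cells were exposed to test compound for 48 hours across five concentrations. GI50 is the concentration that inhibits growth by half.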 Active and inactive are the calls of the source. Rule as the data show it: active = GI50 up to about 1.1 µM and inactive = higher.

The record followed here is ChEMBL document CHEMBL1201862, “PubChem BioAssay data set” (2004).

For orientation: GI50 means the concentration giving 50% growth inhibition.

In the case of `CC(Nc1cc(=O)n(C)c(=O)[nH]1)c1ccccc1` (centres undefined), the GI50 with MCF7, with 786-0, in the assay on A549, with SW-620, in the assay with SNB-75 and with OVCAR-8 was > 100 µM (inactive) throughout. For the same molecule, the GI50 with MDA-MB-435 is > 100 µM (inactive); in the assay on SK-MEL-28, > 100 µM (inactive); with COLO 205 it was > 100 µM (inactive); in the assay with NCI-H522 it was > 100 µM (inactive); in the assay on CCRF-CEM, > 100 µM (inactive); with HCT-15 it was over 100 µM. Moreover, the GI50 with SN12C, in the assay with ACHN, in the assay on T47D, in the assay on NCI/ADR-RES, in the assay with DU-145 and in the assay with BT-549 was > 100 µM (inactive) each time. Besides, in the assay on HOP-92, the GI50 is 15.5 µM (inactive).
For `COc1ccc(CCCCl)c(C2=NCCc3cc(OC)c(OC)cc32)c1`, the GI50 is 41.5 µM (inactive) in the assay with MCF7; 94.8 µM (inactive) with 786-0; 69.7 µM (inactive) with A549; 72.1 µM (inactive) with SW-620; 42.3 µM (inactive) with SNB-75; 25.6 µM (inactive) in the assay on OVCAR-8. For the same molecule, the GI50 in the assay with MDA-MB-435 is 35.6 µM (inactive); with SK-MEL-28, 63.2 µM (inactive); in the assay with COLO 205 it was 25.7 µM (inactive); with NCI-H522, 28.8 µM (inactive); in the assay with CCRF-CEM, 92.5 µM (inactive); with HCT-15, 71.1 µM. For the same molecule, the GI50 with SN12C is 54.3 µM (inactive); in the assay on ACHN, 68.1 µM (inactive); in the assay with T47D, 46.1 µM (inactive); with NCI/ADR-RES, 46.8 µM (inactive); with DU-145 it was > 100 µM (inactive); in the assay on BT-549, 37.8 µM (inactive). For the same molecule, in the assay on HOP-92, the GI50 was 20.6 µM (inactive).
As for `Cc1ccc2[nH]c3c(c(=O)n(C)c(=O)n3C)c2c1`, the GI50 in the assay on MCF7, with 786-0, in the assay on A549, in the assay with SW-620, with SNB-75 and with OVCAR-8 was > 100 µM (inactive) throughout. Moreover, the GI50 with Malme-3M is > 100 µM (inactive); with MDA-MB-435 it was > 100 µM (inactive); in the assay on COLO 205, > 100 µM (inactive); in the assay with NCI-H522 it was > 100 µM (inactive); in the assay with CCRF-CEM it was > 100 µM (inactive); in the assay on HCT-15 it was over 100 µM. Besides, the GI50 in the assay on SN12C, in the assay with ACHN, with T47D, in the assay with NCI/ADR-RES, with DU-145 and with BT-549 was > 100 µM (inactive) each time. The GI50 in the assay with HOP-92 was > 100 µM (inactive).
In the case of `C=CCc1cccc(C(=O)/C=C(O)/C=C/c2ccccc2Cl)c1O`, the GI50 in the assay on MCF7 is 13.2 µM (inactive); in the assay with 786-0, 10.4 µM (inactive); in the assay with A549, 8.91 µM (inactive); in the assay with SW-620, 8.43 µM (inactive); in the assay on SNB-75 it was 67.3 µM (inactive); with OVCAR-8 it was 6.04 µM (inactive). Also, the GI50 in the assay on MDA-MB-435 was 12.4 µM (inactive); with SK-MEL-28, 10.5 µM (inactive); in the assay with COLO 205, 25.1 µM (inactive); with NCI-H522, 11.2 µM (inactive); in the assay on CCRF-CEM it was 6.82 µM (inactive); in the assay on HCT-15, 8.39 µM. Further, the GI50 was 25.6 µM (inactive) in the assay with SN12C; 23.3 µM (inactive) in the assay with ACHN; 9.48 µM (inactive) in the assay on T47D; 11.5 µM (inactive) with NCI/ADR-RES; 15.1 µM (inactive) in the assay on DU-145; 37.4 µM (inactive) in the assay with BT-549. Further, the GI50 with HOP-92 was 25.6 µM (inactive).
Take `CC1=C(C(=O)NCCCN(CCO)CCO)CC(C(=O)NCCCN(CCO)CCO)=C(C)N1`: the GI50 in the assay on MCF7 is > 100 µM (inactive); in the assay on 786-0, > 100 µM (inactive); in the assay on A549, > 100 µM (inactive); in the assay with SW-620 it was > 100 µM (inactive); in the assay with SNB-75, 15.2 µM (inactive); in the assay on OVCAR-8, > 100 µM (inactive). For the same molecule, the GI50 in the assay on MDA-MB-435 is 56 µM (inactive); in the assay with COLO 205, > 100 µM (inactive); in the assay with NCI-H522 it was 98.9 µM (inactive); in the assay on CCRF-CEM it was 19.1 µM (inactive); with HCT-15, over 100 µM; with SN12C, > 100 µM (inactive). Besides, the GI50 is 97.1 µM (inactive) in the assay with ACHN; 62.1 µM (inactive) with T47D; > 100 µM (inactive) in the assay on NCI/ADR-RES; > 100 µM (inactive) in the assay with DU-145; > 100 µM (inactive) with BT-549; 54.6 µM (inactive) with HOP-92.
Consider `O=c1[nH]c(=O)c2c([nH]1)[nH]c1ccccc12`, for which the GI50 with MCF7, in the assay with 786-0, with A549, in the assay with SW-620, in the assay with SNB-75 and with OVCAR-8 was > 100 µM (inactive) in each case. Also, the GI50 is > 100 µM (inactive) in the assay on Malme-3M; > 100 µM (inactive) with MDA-MB-435; > 100 µM (inactive) with COLO 205; > 100 µM (inactive) in the assay with NCI-H522; > 100 µM (inactive) in the assay with CCRF-CEM; over 100 µM in the assay on HCT-15. Besides, the GI50 in the assay with SN12C, in the assay on ACHN, in the assay with T47D, with NCI/ADR-RES, in the assay on DU-145 and in the assay on BT-549 was > 100 µM (inactive) each time. Besides, the GI50 in the assay with HOP-92 is > 100 µM (inactive).
Regarding `COc1cccc(-n2c(N)c(-c3nc4cc(C(F)(F)F)ccc4s3)c3ccc([N+](=O)[O-])cc3c2=O)c1`, the GI50 with MCF7, in the assay on 786-0, with A549, in the assay on SNB-75, with Malme-3M and in the assay on MDA-MB-435 was > 100 µM (inactive) throughout. Also, the GI50 is > 100 µM (inactive) in the assay on SK-MEL-28; > 100 µM (inactive) with COLO 205; > 100 µM (inactive) in the assay with NCI-H522; over 100 µM with HCT-15; > 100 µM (inactive) with SN12C; > 100 µM (inactive) in the assay with ACHN. The GI50 with T47D, in the assay with NCI/ADR-RES, with DU-145, in the assay on BT-549 and in the assay with HOP-92 was > 100 µM (inactive) in each case.
As for `COc1cc(/C=C/C(=O)OC[C@]23O[C@H]2[C@@H](OC2OC(C)C(O)C(O)C2O)C2C=CO[C@@H](OC4OC(CO)C(O)C(O)C4O)C23)ccc1O` (some centres undefined), the GI50 in the assay with MCF7, in the assay on 786-0, in the assay on A549, with SW-620, in the assay with SNB-75 and in the assay on OVCAR-8 was > 100 µM (inactive) each time. Further, the GI50 in the assay on Malme-3M is > 100 µM (inactive); in the assay on MDA-MB-435, > 100 µM (inactive); with SK-MEL-28, > 100 µM (inactive); in the assay with COLO 205 it was > 100 µM (inactive); in the assay with NCI-H522, > 100 µM (inactive); in the assay on HCT-15, over 100 µM. Further, the GI50 with SN12C, in the assay with ACHN, with T47D, in the assay with NCI/ADR-RES, in the assay with DU-145 and in the assay with BT-549 was > 100 µM (inactive) each time. Besides, in the assay on HOP-92, the GI50 is > 100 µM (inactive).
